Here are results for 41 molecules from patent publication US7829560B2, “1,4-disubstituted naphthalenes as inhibitors of P38 MAP kinase” (Arqule, Inc., priority 2004, dated 2010).

Structures are written as SMILES. Where “and” joins values, the source holds several entries; their conditions need not be identical. Equal entries are not always repeated.

This assay addresses T1, p38α (Homo sapiens, UniProt Q16539).
T1 construct: p38 MAP Kinases are recombinant human full-length proteins with an amino-terminal GST fusion; GST (N); purchased Upstate Biotechnology Inc; host or cells: E. coli
Put plainly: p38 MAP Kinase assay: inhibition of ATF2 phosphorylation, ELISA. The format is biochemical. The note with it: for inhibition at 10 µM: substrate ATF2, read-out: [ENZ] P38 ALPHA, PCT INH, ELISA (10 uM;ATF2) (Percent); for IC50: ATF2 phosphorylation, read-out: [ENZ] P38 ALPHA, IC50, ELISA. An excerpt:
Compounds of the invention are screened for the ability to inhibit ATF2 phosphorylation by p38 MAP Kinase in vitro. The ability of compounds to inhibit ATF2 phosphorylation in this in vitro assay is correlated with the inhibition of p38 MAP Kinase and TNFα expression in vivo, and is therefore an indicator of potential in vivo therapeutic activity (Raingeaud, J., et al, J. Biol. Chem., 270: 7420-7426, 1995, Brinkman, M. N., et al, J. Biol. Chem. 274: 30882-30886, 1999 and Fuchs, S. Y. et al, J. Biol. Chem. 275: 12560-12564, 2000).
Materials: All kinases and the substrate ATF2 are acquired from Upstate Biotechnology Inc. p38 MAP Kinases are recombinant human full-length proteins with an amino-terminal GST fusion, expressed in and purified from E. coli. ATF2 is a GST fusion protein containing amino acids 19-96 of human ATF2 expressed in E. coli. All proteins are aliquoted and stored at −80° C.
Methods: p38 MAP Kinase assays are performed using an assay buffer containing 25 mM HEPES, pH 7.5, 10 mM MgCl2, 2 mM DTT, 20 mM β-glycerophosphate, 0.1 mM Na3VO4, 40 μM ATP and 1.25 μM of ATF2 and in the absence or presence of 1% human serum albumin, Method I and II, respectively, with 0.4-6 ng of protein depending on the kinase used. Compounds are serially diluted in DMSO and 2 μL of test compound at 25× final concentration is used. The vehicle control receives DMSO only. Test compounds are pre-incubated with 20 μl of enzyme in kinase buffer (25 mM HEPES, pH 7.5, 10 mM MgCl2, 2 mM DTT, 20 mM β-glycerophosphate, 0.1 mM Na3VO4 in the absence or presence of 1% human serum albumin, Method I and II, respectively) at room temperature for 15 minutes. […] The reactions are incubated for 30 minutes at 37° C. and terminated by the addition of 18 μl of 200 mM EDTA. An ELISA method (I or II) is used to measure the phosphorylation of ATF2 at Thr 69. Method I: 96-well high binding plates (Corning 3369) are coated with 50 μl of kinase reaction for 1 hour at 37° C. The coated plates are washed with 200 μl washing buffer (25 mM Tris HCl, pH 8.3, 192 mM glycine, 0.1% SDS and 0.05% Tween-20) three times. The plates are then washed three times with SuperBlock in TBS (Pierce, 37535). After blocking, plates are incubated with 50 μl of rabbit anti-phospho-ATF2 antibody (Cell Signaling, 9221L, 1:500) for 30 minutes at 37° C. Plates are washed three times with washing buffer prior to incubation with 50 μl HRP-conjugated goat anti-rabbit antibody (Cell Signaling, 7074, 1:500) for 30 minutes at 37° C. Plates are then washed three times with washing buffer before incubation with 50 μl of Ultra TMB-ELISA (Pierce, 34028) for 8 minutes at room temperature. Finally, 50 ul of phosphoric acid (1 M) is added to stop reactions and plate absorbance is read at 450 nm on a SpectraMax 250 plate reader. Method II: 96-well high binding plates (Corning 3369) are coated with 400 ng of monoclonal antibody against GST-tag (Cell signaling) in 100 μl containing sodium borate (pH 8.3) for 90 minutes at 37° C. The plates are washed with 200 μl washing buffer (25 mM Tris HCl, pH 7.2, 150 mM NaCl and Tween-20) three times and blocked with 200 μl of 5% nonfat milk for 30 minutes at room temperature. The plates are washed three times with washing buffer, 50 μl of stopped kinase reaction are added to each well and incubated for 80 minutes at 37° C. The plates are washed three times with 200 μl washing buffer, and the plates are incubated with 50 μl of rabbit anti-phospho-ATF2 antibody (Cell Signaling, 9221L, 1:500) for 30 minutes at 37° C. Plates are washed three times with washing buffer prior to incubation with 50 μl HRP-conjugated goat anti-rabbit antibody (Cell Signaling, 7074, 1:500) for 30 minutes at 37° C. Plates are washed three times with washing buffer before incubation with 50 μl of Ultra TMB-ELISA (Pierce, 34028) for 25 minutes at room temperature. Finally, 50 μl of phosphoric acid (1 M) is added to stop reactions and plate absorbance is read at 450 nm on a SpectraMax 250 plate reader. […]

T1 sequence (Q16539 whole entry, the tested form may be a part): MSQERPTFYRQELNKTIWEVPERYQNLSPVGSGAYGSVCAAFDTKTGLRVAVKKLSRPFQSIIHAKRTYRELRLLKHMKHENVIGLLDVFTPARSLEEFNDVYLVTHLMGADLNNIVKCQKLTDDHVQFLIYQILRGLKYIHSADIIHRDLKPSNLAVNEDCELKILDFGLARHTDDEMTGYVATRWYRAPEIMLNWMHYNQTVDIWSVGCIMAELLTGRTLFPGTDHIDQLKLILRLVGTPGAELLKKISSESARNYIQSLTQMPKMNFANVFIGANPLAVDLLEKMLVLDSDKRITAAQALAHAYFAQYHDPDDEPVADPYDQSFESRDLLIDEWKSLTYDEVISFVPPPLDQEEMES

For the molecule `O=C(Nc1ccc(OCCN2CCOCC2)c2ccccc12)c1cccc(-c2ccc(C3CCCCC3)cc2)c1` [Compound B118], the inhibition at 10 µM was 0%.
In the case of `O=C(Nc1ccc(OCCN2CCOCC2)c2ccccc12)c1cccc(N2CCSC2)n1` [Compound B138], the inhibition at 10 µM was -36%.
For the molecule `O=C(Nc1ccc(OCCN2CCOCC2)c2ccccc12)c1cccc(N2CCc3ccccc3C2)c1` [Compound B168], the inhibition at 10 µM worked out at 36%.
`Cc1cccc(N2CCN(c3cccc(C(=O)Nc4ccc(OCCN5CCOCC5)c5ccccc45)c3)CC2)c1` [Compound B172]: the inhibition at 10 µM was found to be 25%.
With `COc1ccc(Cl)cc1-c1cccc(C(=O)Nc2ccc(OCCN3CCOCC3)c3ccccc23)c1` [Compound B111], the inhibition at 10 µM is 50% and the IC50 stood at 5.06 µM.
Consider `Cc1cc(C(=O)Nc2ccc(OCCN3CCOCC3)c3ccccc23)cc(Cl)n1` [Compound B64], for which the inhibition at 10 µM turned out to be 3%.
With `O=C(Nc1ccc(OCCN2CCOCC2)c2ccccc12)c1cccc(-c2ccccc2C(F)(F)F)c1` [Compound B97], the inhibition at 10 µM turned out to be 31% and the IC50 is more than 10 µM.
Regarding `CN(c1cccc(C(=O)Nc2ccc(OCCN3CCOCC3)c3ccccc23)n1)C1CCCCC1` [Compound B137], the inhibition at 10 µM is 32% and the half-maximal inhibitory concentration (IC50) was more than 100 µM.
In the case of `O=C(Nc1ccc(OCCN2CCOCC2)c2ccccc12)c1ccnc(N2Cc3ccccc3C2)c1` [Compound B132], the inhibition at 10 µM was found to be 36%.
Take `Cc1ccc(-c2cccc(C(=O)Nc3ccc(OCCN4CCOCC4)c4ccccc34)c2)c2ccccc12` [Compound B114]: the inhibition at 10 µM was 11.3%.
As for `O=C(Nc1ccc(OCCN2CCOCC2)c2ccccc12)c1cccc(-c2cc(F)cc(F)c2)c1` [Compound B103], the inhibition at 10 µM was determined as 68% and the IC50 stood at 1.63 µM.
Regarding `O=C(Nc1ccc(OCCN2CCOCC2)c2ccccc12)c1cccc(N2CCC(N3CCCC3)CC2)c1` [Compound B171], the inhibition at 10 µM was 16%.
Regarding `CC1CC(C)CN(c2cccc(C(=O)Nc3ccc(OCCN4CCOCC4)c4ccccc34)n2)C1` (stereo not drawn) [Compound B141], the inhibition at 10 µM is 13%.
On to `O=C(Nc1ccc(OCCN2CCCCC2)c2ccccc12)c1ccnc(Cl)c1` [Compound B7], for which the inhibition at 10 µM stood at 21%.
Consider `CCn1nc(C)cc1C(=O)Nc1ccc(OCCN2CCOCC2)c2ccccc12` [Compound B80], for which the inhibition at 10 µM came to 9%.
Consider `Cc1cc(C(=O)Nc2ccc(OCCN3CCOCC3)c3ccccc23)cc(N2CCCC2c2ccccc2Cl)n1` (stereo not drawn) [Compound B156], for which the inhibition at 10 µM was determined as 19% and the 50% inhibitory concentration (IC50) was more than 100 µM.
`Cc1cc(C(=O)Nc2ccc(OCCN3CCOCC3)c3ccccc23)cc(N2CCSC2)n1` [Compound B151]: the inhibition at 10 µM amounted to 0%.
Turning to `CCOC(=O)N1CCN(CCOc2ccc(NC(=O)c3ccc(CN4CCS(=O)(=O)CC4)cc3)c3ccccc23)CC1` [Compound B16], the inhibition at 10 µM was 27.5%.
Turning to `CN1CCN(CCOc2ccc(NC(=O)c3ccc(-n4ccc(C(F)(F)F)n4)cc3)c3ccccc23)CC1` [Compound B9], the inhibition at 10 µM came to 21%.
Consider `O=C(Nc1ccc(OCCN2CCOCC2)c2ccccc12)c1cccc(N2CCC(c3ccccc3)CC2)n1` [Compound B72], for which the inhibition at 10 µM was determined as 0%.
Take `O=C(Nc1ccc(OCCN2CCOCC2)c2ccccc12)c1cccc(N2CCC(N3CCCCC3)CC2)n1` [Compound B70]: the inhibition at 10 µM is 14%.
On to `CC(=O)N1CCN(c2cccc(C(=O)Nc3ccc(OCCN4CCOCC4)c4ccccc34)n2)CC1` [Compound B136], for which the inhibition at 10 µM was determined as 10%.
Consider `O=C(Nc1ccc(OCCN2C(=O)c3ccccc3C2=O)c2ccccc12)c1cc(F)cc(N2CCOCC2)c1` [Compound B187], for which the IC50 was more than 10 µM.
For the molecule `O=C(Nc1ccc(OCCN2CCOCC2)c2ccccc12)c1cccc(-c2cccc(Cl)c2)c1` [Compound B94], the inhibition at 10 µM is 71% and the IC50 is 1.14 µM.
On to `Cc1ccc(-c2cccc(C(=O)Nc3ccc(OCCN4CCOCC4)c4ccccc34)c2)cc1` [Compound B93], for which the inhibition at 10 µM was 34% and the IC50 was more than 10 µM.
For `CC1CCCN(c2cccc(C(=O)Nc3ccc(OCCN4CCOCC4)c4ccccc34)n2)C1` (stereo not drawn) [Compound B69], the inhibition at 10 µM was found to be 34%.
The same measure, in the same setting: under `Cc1cc(C(=O)Nc2ccc(OCCN3CCOCC3)c3ccccc23)cc(N2CCC(N3CCCC3)CC2)n1` [Compound B152] stands 0%; under `CCOC(=O)N1CCN(CCOc2ccc(NC(=O)c3cccc(N4CCOCC4)c3)c3ccccc23)CC1` [Compound B15], 18%.
On to `O=C(Nc1ccc(OCCN2CCOCC2)c2ccccc12)c1cccc2ccccc12` [Compound B89], for which the inhibition at 10 µM came out at 29%.
For the molecule `COc1cc(-c2cccc(C(=O)Nc3ccc(OCCN4CCOCC4)c4ccccc34)c2)cc(OC)c1OC` [Compound B112], the inhibition at 10 µM was 15% and the 50% inhibitory concentration (IC50) is more than 100 µM.
For `O=C(Nc1ccc(OCCN2CCOCC2)c2ccccc12)c1cccc(-c2ccc(Cl)cc2Cl)c1` [Compound B95] the same measures were 58% and 1.75 µM.
As to `CN1CCN(CCOc2ccc(NC(=O)c3ccnc(Cl)c3)c3ccccc23)CC1` [Compound B6], the inhibition at 10 µM came out at 7.5%.
On to `O=C(Nc1ccc(OCCN2CCOCC2)c2ccccc12)C1=CC=CC(C(F)(F)F)C1Cl` (stereo not drawn) [Compound B81], for which the inhibition at 10 µM is 6%.
With `O=C(Nc1ccc(OCCN2CCOCC2)c2ccccc12)c1cccc(/C=C/c2ccccc2)c1` [Compound B98], the inhibition at 10 µM was 15% and the IC50 was more than 10 µM.
On to `CC(C)(C)C1CCC(Oc2cc(F)cc(C(=O)Nc3ccc(OCCN4CCOCC4)c4ccccc34)c2)CC1` (stereo not drawn) [Compound B216], for which the 50% inhibitory concentration (IC50) is more than 10 µM.
As to `O=C(Nc1ccc(OCCN2CCOCC2)c2ccccc12)c1cccc(N2CCCCCCC2)n1` [Compound B135], the inhibition at 10 µM amounted to 20% and the half-inhibitory concentration (IC50) was more than 100 µM.
As to `CCC(C)N(C)c1cccc(C(=O)Nc2ccc(OCCN3CCOCC3)c3ccccc23)n1` (stereo not drawn) [Compound B149], the inhibition at 10 µM was 8.5%.
With `O=C(Nc1ccc(OCCN2CCOCC2)c2ccccc12)c1cccc(C(=O)c2ccccc2)c1` [Compound B78], the inhibition at 10 µM came to 34% and the 50% inhibitory concentration (IC50) is more than 10 µM.
Turning to `CN(C)CCN(C)c1cc(F)cc(C(=O)Nc2ccc(OCCN3CCOCC3)c3ccccc23)c1` [Compound B68], the inhibition at 10 µM was 10%.
Still for that read-out and setting: then `CN1CCN(CCOc2ccc(NC(=O)c3ccnc(N4CCOCC4)c3)c3ccccc23)CC1` [Compound B21], with 19.5%.
Turning to `O=C1CN(CCOc2ccc(NC(=O)c3cc(F)cc(N4CCCCC4)c3)c3ccccc23)CCN1` [Compound B164, 3-Fluoro-N-{4-[2-(3-oxo-piperazin-1-yl)-ethoxy]-naphthalen-1-yl}-5-piperidin-1-yl-benzamide], the inhibition at 10 µM was 83.5%; the IC50 was 0.436 µM and 0.306 µM.

For orientation: IC50 means the concentration that inhibits the measured activity by half.
